# Test results published in patent US7220758B2, “Ether substituted imidazopyridines” (3M Innovative Properties Company, priority 2002, dated 2007).
# Counter-ions that a name gives are not always drawn.
row,SMILES,melting point [°C]
1,"CCOCc1nc2c(N)nc(C)cc2n1CCOCc1ccccc1 [Example 80, 1-[2-(Benzyloxy)ethyl]-2-(ethoxymethyl)-6-methyl-1H-imidazo[4,5-c]pyridin-4-amine]",127 to 128
2,"CCc1nc2c(N)nc(C)c(C)c2n1CCOCCNC(=O)C1CCCCC1 [Example 104, N-{2-[2-(4-Amino-2-ethyl-6,7-dimethyl-1H-imidazo[4,5-c]pyridin-1-yl)ethoxy]ethyl}cyclohexanecarboxamide]",170 to 172
3,"CCCc1nc2c(N)nc(C)c(C)c2n1CCCS(=O)(=O)c1ccc(C(=O)OCC)cc1 [Example 99, 4-[3-(4-Amino-6,7-dimethyl-2-propyl-1H-imidazo[4,5-c]pyridin-1-yl)propane-1-sulfonyl]benzoic acid ethyl ester]",169 to 171
4,"CCc1nc2c(N)nc(C)c(C)c2n1CCOCCNS(C)(=O)=O [Example 102, N-{2-[2-(4-Amino-2-ethyl-6,7-dimethyl-1H-imidazo[4,5-c]pyridin-1-yl)ethoxy]ethyl}methanesulfonamide]",145 to 147
5,"CCCc1nc2c(N)ncc(Br)c2n1CCOCCNS(C)(=O)=O [Example 113, N-{2-[2-(4-Amino-7-bromo-2-propyl-1H-imidazo[4,5-c]pyridin-1-yl)ethoxy]ethyl}methanesulfonamide]",129 to 131
6,"CCCc1nc2c(N)nc(Cl)c(C)c2n1CCOCCNC(=O)c1ccccc1 [Example 125, N-{2-[2-(4-Amino-6-chloro-7-methyl-2-propyl-1H-imidazo[4,5-c]pyridin-4-yl)ethoxy]ethyl}benzamide]",188 to 189
7,"CCc1nc2c(N)nc(C)c(C)c2n1CCOCCNC(=O)N1CCOCC1 [Example 103, N-{2-[2-(4-Amino-2-ethyl-6,7-dimethyl-1H-imidazo[4,5-c]pyridin-1-yl)ethoxy]ethyl}morpholine-4-carboxamide]",182 to 184
8,"Cc1nc(N)c2nc(C)n(CCOCCNC(=O)C(C)C)c2c1C (as salt: salt) [Example 16, N-{2-[2-(4-Amino-2,6,7-trimethyl-1H-imidazo[4,5-c]pyridin-1-yl)ethoxy]ethyl}-2-methylpropanamide]",179.5 to 182
9,"CCc1nc2c(N)nc(C)c(C)c2n1CCOCCN1CCCC1=O [Example 124, 1-{2-[2-(4-Amino-2-ethyl-6,7-dimethyl-1H-imidazo[4,5-c]pyridin-1-yl)ethoxy]ethyl}pyrrolindin-2-one]",128 to 130
10,"CCc1nc2c(N)nc(C)c(C)c2n1CCOCCN1CCCS1(=O)=O [Example 106, 1-{2-[2-(1,1-Dioxidoisothiazolidin-2-yl)ethoxy]ethyl}-2-ethyl-6,7-dimethyl-1H-imidazo[4,5-c]pyridin-4-amine]",157 to 159
11,"CCCc1nc2c(N)nc(C)c(C)c2n1CCCCCCS(C)(=O)=O [Example 91, 1-[6-(Methanesulfonyl)hexyl]-6,7-dimethyl-2-propyl-1H-imidazo[4,5-c]pyridin-4-amine]",157 to 158
12,"Cc1nc(N)c2ncn(CCOc3ccccc3)c2c1C [Example 1, 6,7-Dimethyl-1-(2-phenoxyethyl)-1H-imidazo[4,5-c]pyridin-4-amine]",197 to 199
13,"CCCCc1nc2c(N)nc(C)c(C)c2n1CCOc1ccccc1 [Example 3, 2-Butyl-6,7-dimethyl-1-(2-phenoxyethyl)-1H-imidazo[4,5-c]pyridin-4-amine]",130 to 132
14,"CCCc1nc2c(N)nc(Cl)c(C)c2n1CCOCCN [Example 121, 1-[2-(2-Aminoethoxy)ethyl]-6-chloro-7-methyl-2-propyl-1H-imidazo[4,5-c]pyridin-4-amine]",158 to 161
15,"Cc1nc(N)c2nc(C)n(CCOCCCc3cccnc3)c2c1C [Example 10, 2,6,7-Trimethyl-1-[2-(3-pyridin-3-ylpropoxy)ethyl]-1H-imidazo[4,5-c]pyridin-4-amine]",108.6 to 109.5
16,"Cc1nc(N)c2nc(C)n(CCOCCN)c2c1C (as salt: salt) [Example 14, 1-[2-(2-Aminoethoxy)ethyl]-2,6,7-trimethyl-1H-imidazo[4,5-c]pyridin-4-amine]",130 to 133
17,"Cc1nc(N)c2nc(C)n(CCOCc3ccccc3)c2c1C [Example 5, 1-[2-(Benzyloxy)ethyl]-2,6,7-trimethyl-1H-imidazo[4,5-c]pyridin-4-amine]",136.8 to 137.5
18,CCc1nc2c(N)nc(C)c(C)c2n1CCOCCNC(=O)NC1CCCCC1 [Example 105],187 to 189
19,"Cc1nc(N)c2nc(C)n(CCCCCS(C)(=O)=O)c2c1C [Example 78, 1-[5-(Methanesulfonyl)pentyl]-2,6,7-trimethyl-1H-imidazo[4,5-c]pyridin-4-amine]",199 to 200
20,"CCCc1nc2c(N)nc(C)c(C)c2n1CCCCCS(C)(=O)=O [Example 96, 1-[5-(Methanesulfonyl)pentyl]-6,7-dimethyl-2-propyl-1H-imidazo[4,5-c]pyridin-4-amine]",145 to 146
21,"CCCc1nc2c(N)ncc(Br)c2n1CCOCCN [Example 114, 1-[2-(2-Aminoethoxy)ethyl]-7-bromo-2-propyl-1H-imidazo[4,5-c]pyridin-4-amine]",114 to 117

row,SMILES,melting point [°C]
1,"CCCc1nc2c(N)nc(C)c(C)c2n1CCCS(=O)(=O)c1ccccn1 [Example 98, 6,7-Dimethyl-2-propyl-1-[3-(pyridine-2-sulfonyl)propyl]-1H-imidazo[4,5-c]pyridin-4-amine]",172 to 173.5
2,"Cc1nc(N)c2nc(C)n(CCOCCCc3ccccc3)c2c1C [Example 8, 2,6,7-Trimethyl-1-[2-(3-phenylpropoxy)ethyl]-1H-imidazo[4,5-c]pyridin-4-amine]",118.1 to 119
3,"Cc1nc(N)c2nc(C)n(CCOCC#Cc3ccccc3)c2c1C [Example 7, 2,6,7-Trimethyl-1-{2-[(3-phenylprop-2-ynyl)oxy]ethyl}-1H-imidazo[4,5-c]pyridin-4-amine]",186.8 to 187.5
4,"Cc1nc(N)c2nc(C)n(CCOCc3ccncc3)c2c1C [Example 110, 2,6,7-Trimethyl-1-[2-(pyridin-4-ylmethoxy)ethyl]-1H-imidazo[4,5-c]pyridin-4-amine]",208 to 210
5,"CCc1nc2c(N)nc(C)c(C)c2n1CCOCCNC(=O)NS(=O)(=O)c1ccccc1 [Example 108, N-[({2-[2-(4-Amino-2-ethyl-6,7-dimethyl-1H-imidazo[4,5-c]pyridin-1-yl)ethoxy]ethyl}amino)carbonyl]benzenesulfonamide]",201 to 203
6,"CCCc1nc2c(N)nc(C)c(C)c2n1CCCCCS(=O)(=O)c1ccc(Cl)cc1 [Example 85, 1-[5-(4-Chlorobenzenesulfonyl)pentyl]-6,7-dimethyl-2-propyl-1H-imidazo[4,5-c]pyridin-4-amine]",147 to 149
7,"CCOCc1nc2c(N)nc(C)c(C)c2n1CCOCc1ccccc1 [Example 4, 1-[2-(Benzyloxy)ethyl]-2-(ethoxymethyl)-6,7-dimethyl-1H-imidazo[4,5-c]pyridin-4-amine]",107.3 to 108.2
8,"CCCCNC(=O)c1ccc(S(=O)(=O)CCCn2c(CCC)nc3c(N)nc(C)c(C)c32)cc1 [Example 119, 4-[3-(4-Amino-6,7-dimethyl-2-propyl-1H-imidazo[4,5-c]pyridin-1-yl)propane-1-sulfonyl]-N-butylbenzamide]",147 to 149
9,CCCc1nc2c(N)nc(C)c(C)c2n1CCCCCS(=O)(=O)c1ccc(C(F)(F)F)cc1,172 to 173.5
10,"Cc1nc(N)c2nc(C)n(CCOC/C=C/c3ccccc3)c2c1C [Example 9, 2,6,7-Trimethyl-1-(2-{[(2E)-3-phenylprop-2-enyl]oxy}ethyl)-1H-imidazo[4,5-c]pyridin-4-amine]",143.7 to 144.8
11,"CSCCCCCn1c(C)nc2c(N)nc(C)c(C)c21 [Example 12, 2,6,7-Trimethyl-1-[5-(methylthio)pentyl]-1H-imidazo[4,5-c]pyridin-4-amine]",121 to 122
12,"CCCc1nc2c(N)nc(C)c(C)c2n1CCOCc1ccccc1 [Example 6, 1-[2-(Benzyloxy)ethyl]-6,7-dimethyl-2-propyl-1H-imidazo[4,5-c]pyridin-4-amine]",99.5 to 100
13,"Cc1nc(N)c2nc(C)n(CCOCCNC(=O)N3CCOCC3)c2c1C (as salt: salt) [Example 15, N-{2-[2-(4-Amino-2,6,7-trimethyl-1H-imidazo[4,5-c]pyridin-1-yl)ethoxy]ethyl}morpholine-4-carboxamide]",205 to 207
14,"Cc1nc(N)c2nc(C)n(CCOc3ccccc3)c2c1C [Example 2, 2,6,7-Trimethyl-1-(2-phenoxyethyl)-1H-imidazo[4,5-c]pyridin-4-amine]",176 to 177
15,"Cc1nc(N)c2nc(C)n(CCCCCSc3ccccc3)c2c1C [Example 13, 2,6,7-Trimethyl-1-[5-(phenylthio)pentyl]-1H-imidazo[4,5-c]pyridin-4-amine]",181 to 183
16,"CCCc1nc2c(N)nc(C)c(C)c2n1CCCCS(C)(=O)=O [Example 89, 1-[4-(Methanesulfonyl)butyl]-6,7-dimethyl-2-propyl-1H-imidazo[4,5-c]pyridin-4-amine]",152 to 153
17,CCCc1nc2c(N)nc(C)c(C)c2n1CCCCCS(=O)(=O)c1ccccc1,134 to 136
18,"CCCc1nc2c(N)nc(C)c(C)c2n1CCCS(=O)(=O)c1ccc(C(=O)O)cc1 (as salt: hydrochloride) [Example 100, 4-[3-(4-Amino-6,7-dimethyl-2-propyl-1II-imidazo[4,5-c]pyridin-1-yl)propane-1-sulfonyl]benzoic acid hydrochloride]",> 250
19,"CCOCc1nc2c(N)nc(C)c(C)c2n1CCOCCCc1cncnc1 [Example 112, 2-(Ethoxymethyl)-6,7-dimethyl-1-[2-(3-pyrimidin-5-ylpropoxy)ethyl]-1H-imidazo[4,5-c]pyridin-4-amine]",127 to 129
20,"CCCc1nc2c(N)nc(C)c(C)c2n1CCCS(=O)(=O)c1ccc(C(=O)N2CCOCC2)cc1 [Example 101, {4-[3-(4-Amino-6,7-dimethyl-2-propyl-1H-imidazo[4,5-c]pyridin-1-yl)propane-1-sulfonyl]phenyl}morpholin-4-ylmethanone]",224 to 226
